From patent publication US10682316B2 (NOVA SOUTHEASTERN UNIVERSITY, priority 2010, dated 2020)
Values joined by “and” are separate entries in the source; they are usually repeats but may differ in a detail not shown here. Identical values can stand only once. “Also recorded” adds a separate entry of the source. Like-named read-outs stand apart in the source and are kept apart here.

Key:
[1] = Particle size measurement before and after size reduction (Mastersizer, NiComp 370, Zetasizer); assay type: physicochemical; details: epinephrine base
Experimental: These techniques involve the use of oversaturated solutions of various solvents, particularly water and isopropanol, at various temperatures and pressures ranging from about 8,000 psi to 30,000 psi and to about 8.3° to 43.3° C. under various passes. […] The particles were lyophilized (freeze-dried) using a bench top lyophilizer (ART Inc.).

[2] = Visual observation of discoloration/stability after processing; assay type: physicochemical; details: epinephrine bitartrate compared with epinephrine base
From the text: The main problem was discoloration (a brown color formed) due to degradation.

SMILES	Amount Dissolved % (solubility in water) [%]	mean±SD size before size reduction ([1]; Mastersizer (FIG. 3)) [μm]	Size Before Fabrication (nm) ([1]; Mastersizer, three measurements and mean)	Amount Dissolved % (solubility in acetone) [%]	Amount Dissolved % (solubility in acetonitrile) [%]	Amount Dissolved % (solubility in choloroform) [%]	Amount Dissolved % (solubility in dichloromethane (DCM)) [%]	Amount Dissolved % (solubility in ethyl acetate) [%]	Amount Dissolved % (solubility in hexane) [%]	Amount Dissolved % (solubility in isopropyl alcohol) [%]	Amount Dissolved % (solubility in methanol) [%]	Amount Dissolved % (solubility in tetrahydrofuran (THF)) [%]	Stability / discoloration under fabrication conditions (nanomilling) [2]
CNC[C@H](O)c1ccc(O)c(O)c1 [Epinephrine Base, epinephrine]	2.67	32.91±0.33	33030 nm and 32530 nm and 33160 nm	–	–	–	–	–	–	–	–	–	–
CNC[C@H](O)c1ccc(O)c(O)c1 [Epinephrine Bit, epinephrine bitartrate]	–	–	–	1.56	0.77	0.09	0.00	0.63	0.03	0.62	10.45	7.76	more stable than the epinephrine base; also recorded: did not show any discoloration
